Literature values, collected in US20060039891A1, “Antineoplastic-dendritic polymer drug delivery system” (priority 2001, published 2006).

Experiments:
B16F10 S.C. tumor = details: at maximum tolerated dose via I.V. administration
[1] = I.V. administration

In the case of `N.N.[Cl][Pt][Cl]` [cisplatin, cis-diamminedichloro platinate (II)], the “response of B16F10 tumor models” value (B16F10 S.C. tumor) is listed as “resistant” and the maximum tolerated dose [1] is listed as “about 1 mg/kg”.
